Reference: US20260355188A1, “COMBINATION THERAPIES USING PRMT5 INHIBITORS AND BCL-2 FAMILY INHIBITORS FOR THE TREATMENT OF CANCER” (MIRATI THERAPEUTICS, INC., priority 2022, published 2026)

Tests used:
[1] = tested on: NCI-H1437 xenograft tumors; experiment: In vivo combination study (NCI-H1437 model), Example 2; parameters: species or system female nu/nu mice; conditions: MRTX1719 and ABT-263 100 mg/kg PO QD, A-1331852 25 mg/kg PO QD, alone or combined
Source text: (§1) Immunodeficient female nu/nu mice were implanted with 5×10^6 LU99 cancer cells in 50% Matrigel. Tumor volume measurements were collected using calipers and determined utilizing the formula 0.5×L×W^2 in which L refers to length and W refers to width of each tumor. When tumors reached approximately 125-150 mm^3, animals were randomized to receive A) vehicle, B) a PRMT5 inhibitor, C) navitoclax (ABT-263), D) venetoclax (ABT-199), E) A-1331852, F) the PRMT5 inhibitor and navitoclax, F) the PRMT5 inhibitor and venetoclax, or G) the PRMT5 inhibitor and A-1331852 all administered orally (PO) with the indicated dose and schedule for 20-34 days. Tumor volume was measured twice a week (n=5/treatment group). Average tumor volume and standard error of the mean was calculated and plotted at each study day using GraphPad Prism.
Example 2 was carried out using NCI-H1437 cell line derived xenografts according to the in vivo study procedure described above in Example 1.
(§2) The PRMT5 inhibitor was MRTX1719 administered at 100 mg/kg once a day (QD). MRTX1719 is (2M)-2-(4-(4-(aminomethyl)-1-oxo-1,2-dihydrophthalazin-6-yl)-1-methyl-1H-pyrazol-5-yl)-4-chloro-6-cyclopropoxy-3-fluorobenzonitrile, disclosed as Example 16-8 at p. 307 of the international patent publication No. WO 2021/050915 A1, published 18 Mar. 2021, incorporated by reference in its entirety. The BCL-2 family inhibitor, ABT-263 (navitoclax), was administered at 100 mg/kg once a day (QD) and supplied by Selleck Chemicals (Houston, TX). The BCL-2 family inhibitor A-1331852 was administered at 25 mg/kg once a day (QD) and synthesized at Wuxi AppTec (Wuhan, China).

SW1573 xenograft tumors = experiment: In vivo combination study (SW1573 model), Example 3; parameters: species or system female nu/nu mice; conditions: MRTX1719 and ABT-263 100 mg/kg PO QD, A-1331852 25 mg/kg PO QD, alone or combined
Source text: as §1
Example 3 was carried out in SW1573 cell line derived xenografts according to the in vivo study procedure described above in Example 1.
as §2

[2] = tested on: NCI-H1650 xenograft tumors; experiment: In vivo combination study (NCI-H1650 model), Example 5; parameters: species or system female nu/nu mice; conditions: MRTX1719 and ABT-263 100 mg/kg PO QD, A-1331852 25 mg/kg PO BID, alone or combined
Source text: as §1
Example 5 was carried out using NCI-H1650 cell line derived xenografts according to the in vivo study procedure described above in Example 1.
The PRMT5 inhibitor was MRTX1719 administered at 100 mg/kg once a day (QD). MRTX1719 is (2M)-2-(4-(4-(aminomethyl)-1-oxo-1,2-dihydrophthalazin-6-yl)-1-methyl-1H-pyrazol-5-yl)-4-chloro-6-cyclopropoxy-3-fluorobenzonitrile, disclosed as Example 16-8 at p. 307 of the international patent publication No. WO 2021/050915 A1, published 18 Mar. 2021, incorporated by reference in its entirety. The BCL-2 family inhibitor, ABT-263 (navitoclax), was administered at 100 mg/kg once a day (QD) and supplied by Selleck Chemicals (Houston, TX). The BCL-2 family inhibitor A-1331852 was administered at 25 mg/kg twice a day (BID) and synthesized at Wuxi AppTec (Wuhan, China).

SW1573 = experiment: In vitro combination synergy, SW1573 (Cell-Titer Glo); assay type: cell-based; conditions: combined with exemplary PRMT5 inhibitor, 120 h, sum of Loewe, Bliss, HSA and ZIP scores
Protocol: (§3) A panel of MTAP-deleted cancer cell lines was assembled to determine whether combining BCL-2 family inhibitors with exemplary PRMT5 inhibitors disclosed herein results in synergistic activity.
(§4) [Assays for determining the synergy score for the pairwise combinations for each cell line were performed in triplicate. 384 or 96-well plates plus additional wells of a separate 384 or 96-well control plate for determining baseline luminescence were seeded with cells of a particular MTAP-deleted cell line in a suitable growth medium for that cell line, e.g., RPMI 1640 medium supplemented with 10% FBS and any cell line specific reagents needed for growth. The plates were incubated overnight at 37 °C in a 5% CO2 atmosphere.
(§5) To each of the designated baseline wells, Cell-Titer Glo reagent (CTG; Promega Corporation) was added to each well and the plates were incubated for 20 min shaking at room temperature. Baseline luminescence was quantitated using a BMG ClarioStar multimode plate reader according to the manufacturer's instructions.
(§6) A series of 1000× drug dilutions in 100% DMSO was prepared that includes a 9-point single agent 3-fold dilution of the exemplary PRMT5 inhibitor (of the type described in WO2021/050915) with a top dose of 3000 nM (and a 6-point single agent 5-fold dilution of the BCL-2 family inhibitor with a top dose of 3000 nM as reference standards.
(§7) A 10× intermediate dosing plate was prepared in serum free medium that contains arrayed single agent dilutions of exemplary PRMT5 inhibitor (of the type described in WO2021/050915) and or the BCL-2 family inhibitor. In addition, a matrix of 54 dilution combinations of exemplary PRMT5 inhibitor (of the type described in WO2021/050915) and the BCL-2 family inhibitor was prepared as test samples.
(§8) To each corresponding well of the 384-well plates seeded with the appropriate cell line above, 10× single agent and the 54 combinations of the dose matrix was added and the plates were incubated for 120 hours at 37 °C in 5% CO2 atmosphere. Cell-Titer Glo reagent (CTG) was added to each test well, the plates were incubated for 20 min shaking at room temperature, and luminescence was quantitated using a BMG ClarioStar multimode plate reader according to the manufacturer's instructions. To normalize test samples, the determined baseline luminescence was subtracted from each test sample prior to analysis and mean values are calculated from replicate samples.
(§9) The output of the data from each mathematical model is the assignment of a relative synergy score. The data reported in Table 6 are the aggregate sum of the Loewe additivity, Bliss independence, Highest Single Agent and ZIP synergy scores (“Composite Synergy Score”).

Mero83 = experiment: In vitro combination synergy, Mero83 (Cell-Titer Glo); assay type: cell-based; conditions: combined with exemplary PRMT5 inhibitor, 120 h, sum of Loewe, Bliss, HSA and ZIP scores
Protocol: as §3, §4, §5, §6, §7, §8, §9

SMILES	Average Tumor Volume ([1]; day 4)	Average Tumor Volume ([1]; day 7)	Average Tumor Volume ([1]; day 11)	Average Tumor Volume ([1]; day 14)	Average Tumor Volume ([1]; day 18)	Average Tumor Volume ([1]; day 21)	Average Tumor Volume ([1]; day 25)	Average Tumor Volume ([1]; day 28)	Average Tumor Volume ([1]; day 34)	Average Tumor Volume ([1]; day −1)	Average Tumor Volume (SW1573 xenograft tumors; day 3)	Average Tumor Volume (SW1573 xenograft tumors; day 6)	Average Tumor Volume (SW1573 xenograft tumors; day 10)	Average Tumor Volume (SW1573 xenograft tumors; day 13)	Average Tumor Volume (SW1573 xenograft tumors; day 17)	Average Tumor Volume (SW1573 xenograft tumors; day 20)	Average Tumor Volume (SW1573 xenograft tumors; day 26)	Average Tumor Volume (SW1573 xenograft tumors; day −1)	Average Tumor Volume ([2]; day 0)	Average Tumor Volume ([2]; day 5)	further results
Cn1ncc(-c2ccc3c(=O)[nH]nc(CN)c3c2)c1-c1c(F)c(Cl)cc(OC2CC2)c1C#N (atropisomer, axis not shown; (M)) [MRTX1719, (2M)-2-(4-(4-(aminomethyl)-1-oxo-1,2-dihydrophthalazin-6-yl)-1-methyl-1H-pyrazol-5-yl)-4-chloro-6-cyclopropoxy-3-fluorobenzonitrile]	200 mm^3	244 mm^3	268 mm^3	288 mm^3	316 mm^3	322 mm^3	340 mm^3	362 mm^3	441 mm^3	139 mm^3	172 mm^3	220 mm^3	229 mm^3	242 mm^3	319 mm^3	387 mm^3	444 mm^3	126 mm^3	149 mm^3	246 mm^3	Average Tumor Volume ([2]; day 8): 292 mm^3; Average Tumor Volume ([2]; day 13): 344 mm^3; Average Tumor Volume ([2]; day 15): 398 mm^3; Average Tumor Volume ([2]; day 19): 469 mm^3; Average Tumor Volume ([2]; day 22): 510 mm^3
Cc1c(-c2ccc(N3CCc4cccc(C(=O)Nc5nc6ccccc6s5)c4C3)nc2C(=O)O)cnn1CC12CC3CC(CC(C3)C1)C2 [A-1331852]	171 mm^3	191 mm^3	248 mm^3	300 mm^3	332 mm^3	376 mm^3	467 mm^3	564 mm^3	683 mm^3	139 mm^3	209 mm^3	250 mm^3	271 mm^3	305 mm^3	421 mm^3	456 mm^3	609 mm^3	125 mm^3	143 mm^3	163 mm^3	Average Tumor Volume ([2]; day 8): 189 mm^3; Average Tumor Volume ([2]; day 13): 255 mm^3; Average Tumor Volume ([2]; day 15): 291 mm^3; Average Tumor Volume ([2]; day 19): 347 mm^3; Average Tumor Volume ([2]; day 22): 366 mm^3; Composite Synergy Score (SW1573): 50; Composite Synergy Score (Mero83): 11
